Among the test systems are EKVX NSCLC; HT29 colon; K-562 leukemia; NCI-H522 lung; NCI/ADR-RES ovarian; OVCAR-4 ovarian; SK-MEL-5 melanoma; TK-10 renal; UACC-257 melanoma; UACC-62 melanoma.
What all share (test): NCI tumour cell line growth inhibition, 48 h

Each structure is given as a SMILES string.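 Where inhibition never reached the appropriate level, the endpoint shown equals the highest concentration tested. Otherwise, values were interpolated linearly from a five-concentration, 48-hour dose response in 96-well plates. GI50: concentration for 50% inhibition of growth. TGI: total growth inhibition.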 Where only a bound is given, the exact number is not on record here.

Drawing on PubChem BioAssay (NCI), this text covers GI50 and TGI for 8 compounds.

Turning to `COc1cccc(-c2nn(-c3ccccc3)cc2-c2ccnc(NCCCNS(=O)(=O)c3ccc(C(F)(F)F)cc3)c2)c1`, the GI50 with EKVX NSCLC was 4.61 µM; in the assay with HT29 colon it was 3.21 µM; with K-562 leukemia it was 3.06 µM; in the assay on NCI-H522 lung it was 2.51 µM; in the assay with NCI/ADR-RES ovarian, 3.86 µM; in the assay on OVCAR-4 ovarian it was 4.36 µM. The GI50 in the assay with SK-MEL-5 melanoma was 2.18 µM; in the assay with TK-10 renal, 9.25 µM; in the assay on UACC-257 melanoma it was 6.3 µM; with UACC-62 melanoma, 7.08 µM. The TGI is greater than 100 µM with EKVX NSCLC; greater than 100 µM in the assay on K-562 leukemia; 23 µM in the assay on NCI-H522 lung; greater than 100 µM with NCI/ADR-RES ovarian; greater than 100 µM in the assay on OVCAR-4 ovarian; 5.04 µM in the assay on SK-MEL-5 melanoma. For the same compound, the figures for the TGI in the assay with TK-10 renal, in the assay with UACC-257 melanoma and in the assay on UACC-62 melanoma were greater than 100 µM, 55.9 µM and greater than 100 µM, respectively.
`NC(=O)c1ncn2c(=O)n(CCCl)nnc12`: the TGI in the assay on EKVX NSCLC was 436 µM; in the assay with HT29 colon it was 367 µM; in the assay on K-562 leukemia it was 642 µM; in the assay on NCI-H522 lung, 384 µM; with NCI/ADR-RES ovarian, 496 µM; in the assay with OVCAR-4 ovarian, 437 µM. In addition, the TGI in the assay with SK-MEL-5 melanoma was found to be 324 µM; with TK-10 renal, 651 µM; in the assay on UACC-257 melanoma, 391 µM; in the assay with UACC-62 melanoma, 137 µM. In addition, the values for the GI50 with OVCAR-4 ovarian and in the assay on UACC-62 melanoma were greater than 69.4 µM and 44.9 µM, respectively.
As to `C[C@@H](Oc1cc(-c2cnn(C3CCNCC3)c2)cnc1N)c1c(Cl)cc(F)cc1Cl`, the GI50 with EKVX NSCLC was 3.72 µM; in the assay with HT29 colon it was 1.11 µM; in the assay on K-562 leukemia, 0.229 µM; with NCI-H522 lung, 1.79 µM; in the assay on NCI/ADR-RES ovarian, 5.81 µM; in the assay on OVCAR-4 ovarian it was 2.86 µM. The GI50 in the assay with SK-MEL-5 melanoma is 1.51 µM; with TK-10 renal, 3.6 µM; in the assay with UACC-257 melanoma, 1.49 µM; in the assay with UACC-62 melanoma, 1.61 µM. Besides, the TGI in the assay on EKVX NSCLC stood at 17.3 µM; with HT29 colon, 3.56 µM; in the assay on K-562 leukemia it was 3.88 µM; with NCI-H522 lung, 5.73 µM; with NCI/ADR-RES ovarian, 20.1 µM; with OVCAR-4 ovarian, 10.8 µM. In addition, the TGI in the assay with SK-MEL-5 melanoma turned out to be 2.89 µM; in the assay with TK-10 renal, 11.6 µM; in the assay with UACC-257 melanoma, 3.07 µM; with UACC-62 melanoma, 3.65 µM.
With `CCC(=C(c1ccc(OCCN2CCCC2)cc1)c1ccc(OCCN2CCCC2)cc1)c1ccc(Cl)cc1`, the GI50 with EKVX NSCLC was 0.666 µM; in the assay with HT29 colon, 0.511 µM; with K-562 leukemia, 0.226 µM; in the assay with NCI-H522 lung, 0.577 µM; in the assay with NCI/ADR-RES ovarian, 0.599 µM; in the assay on OVCAR-4 ovarian it was 0.667 µM. The GI50 in the assay with SK-MEL-5 melanoma was 0.6 µM; with TK-10 renal, 0.628 µM; in the assay on UACC-257 melanoma, 0.595 µM; with UACC-62 melanoma it was 0.61 µM. Besides, the TGI in the assay with EKVX NSCLC worked out at 1.4 µM; in the assay with HT29 colon, 1.15 µM; in the assay on K-562 leukemia it was 0.751 µM; with NCI-H522 lung it was 1.24 µM; in the assay on NCI/ADR-RES ovarian it was 1.15 µM; in the assay on OVCAR-4 ovarian, 1.43 µM. Besides, the TGI in the assay on SK-MEL-5 melanoma was 1.07 µM; with TK-10 renal, 1.33 µM; with UACC-257 melanoma, 1.18 µM; in the assay on UACC-62 melanoma, 1.16 µM.
Turning to `N/C(=N/S(=O)(=O)c1cc(C(=O)Nc2ccc(F)cc2)c(Cl)cc1SCc1ccccc1)Nc1ccccc1O`, the GI50 in the assay on EKVX NSCLC is 1.81 µM; in the assay on HT29 colon, 11 µM; in the assay with K-562 leukemia it was 1.33 µM; in the assay on NCI-H522 lung, 3.88 µM; in the assay on NCI/ADR-RES ovarian it was greater than 100 µM; in the assay on OVCAR-4 ovarian it was 2.22 µM. The GI50 in the assay with SK-MEL-5 melanoma was 1.85 µM; in the assay with TK-10 renal, 2.8 µM; in the assay with UACC-257 melanoma, 12.2 µM; in the assay on UACC-62 melanoma, 1.84 µM. The TGI in the assay on EKVX NSCLC is 4.46 µM; in the assay on HT29 colon it was greater than 100 µM; with K-562 leukemia, 3.64 µM; in the assay on NCI-H522 lung, 12.5 µM; with NCI/ADR-RES ovarian it was greater than 100 µM; in the assay with OVCAR-4 ovarian, 5.14 µM. Further, the TGI in the assay on SK-MEL-5 melanoma worked out at 4.57 µM; in the assay on TK-10 renal, 8.61 µM; with UACC-257 melanoma, 26.7 µM; with UACC-62 melanoma, 3.43 µM.
In the case of `COc1ccc(C(Nc2ccccn2)c2cc(C(C)(C)C)cc(C(C)(C)C)c2O)cc1` (stereo unspecified), the TGI in the assay with EKVX NSCLC was greater than 100 µM; in the assay on HT29 colon, greater than 100 µM; with K-562 leukemia, greater than 100 µM; in the assay with NCI-H522 lung it was 17.7 µM; with NCI/ADR-RES ovarian, greater than 100 µM; in the assay on OVCAR-4 ovarian it was greater than 100 µM. The TGI in the assay with SK-MEL-5 melanoma was 31.3 µM; in the assay with TK-10 renal, greater than 100 µM; in the assay with UACC-257 melanoma it was greater than 100 µM; with UACC-62 melanoma it was 67.1 µM.
Take `COc1ccc2c(c1)C(=O)c1c-2n(CCCCl)c(=O)c2cc(N)ccc12`: the GI50 is greater than 100 µM with EKVX NSCLC; greater than 100 µM in the assay on HT29 colon; greater than 48.7 µM with K-562 leukemia; greater than 84.4 µM in the assay on NCI-H522 lung; greater than 100 µM in the assay with NCI/ADR-RES ovarian; greater than 96.7 µM in the assay with OVCAR-4 ovarian. Moreover, the GI50 was 51 µM in the assay with SK-MEL-5 melanoma, greater than 82.5 µM in the assay with TK-10 renal, greater than 100 µM in the assay with UACC-257 melanoma and greater than 100 µM in the assay on UACC-62 melanoma. Also, the TGI with EKVX NSCLC, with HT29 colon, in the assay with K-562 leukemia, with NCI-H522 lung, with NCI/ADR-RES ovarian and in the assay on OVCAR-4 ovarian was greater than 100 µM throughout. Also, the TGI in the assay on SK-MEL-5 melanoma, in the assay on TK-10 renal, in the assay on UACC-257 melanoma and in the assay with UACC-62 melanoma was greater than 100 µM in each case.
With `CC(C)(C)OC(=O)N1Cc2cc3ccccc3nc2C1CO` (stereo unspecified), the GI50 with EKVX NSCLC, in the assay with HT29 colon, in the assay with K-562 leukemia, with NCI-H522 lung, in the assay on NCI/ADR-RES ovarian and in the assay on OVCAR-4 ovarian was greater than 100 µM in each case. Besides, the GI50 in the assay with SK-MEL-5 melanoma, in the assay on TK-10 renal, with UACC-257 melanoma and with UACC-62 melanoma was greater than 100 µM in each case. In addition, the TGI in the assay with EKVX NSCLC, in the assay with HT29 colon, in the assay with K-562 leukemia, in the assay on NCI-H522 lung, in the assay on NCI/ADR-RES ovarian and in the assay on OVCAR-4 ovarian was greater than 100 µM each time. Moreover, the TGI in the assay on SK-MEL-5 melanoma, in the assay with TK-10 renal, with UACC-257 melanoma and with UACC-62 melanoma was greater than 100 µM in each case.
